Results as given in patent US8940909B2, “Indicator platform” (Biosynth AG, priority 2009, dated 2015).

Test system: bacteria producing various biomarker enzymes
Assay: IO staining of colonies of bacteria producing various biomarker enzymes (Table IVc)
Assay type: cell-based
Details: for F: Fluorescence of colonies (hue): hue of fluorescence of stained colonies, 24 h on agar containing the indicator (Table IVc)
[1] = Bacillus cereus strain 51, plc +, 24 h on Tryptic Soy Agar, 0.78 mM PC PLC Indicator, 3.2 g/l BSA, 0.05% Tween80, 5 mM MnCl2
[2] = Bacillus cereus strain 191, plc +, 24 h on Tryptic Soy Agar, 0.78 mM PC PLC Indicator, 3.2 g/l BSA, 0.05% Tween80, 5 mM MnCl2
[3] = Bacillus cereus strain 192, plc +, 24 h on Tryptic Soy Agar, 0.78 mM PC PLC Indicator, 3.2 g/l BSA, 0.05% Tween80, 5 mM MnCl2
[4] = Bacillus cereus strain 289, plc +, 24 h on Tryptic Soy Agar, 0.78 mM PC PLC Indicator, 3.2 g/l BSA, 0.05% Tween80, 5 mM MnCl2
[5] = Bacillus mycoides strain 64, plc +, 24 h on Tryptic Soy Agar, 0.78 mM PC PLC Indicator, 3.2 g/l BSA, 0.05% Tween80, 5 mM MnCl2
[6] = Bacillus thuringiensis strain 66, plc +, 24 h on Tryptic Soy Agar, 0.78 mM PC PLC Indicator, 3.2 g/l BSA, 0.05% Tween80, 5 mM MnCl2
[7] = Escherichia coli strain 61, plc +/−, 24 h on Tryptic Soy Agar, 0.78 mM PC PLC Indicator, 3.2 g/l BSA, 0.05% Tween80, 5 mM MnCl2
[8] = Escherichia coli strain 270, plc +/−, 24 h on Tryptic Soy Agar, 0.78 mM PC PLC Indicator, 3.2 g/l BSA, 0.05% Tween80, 5 mM MnCl2
[9] = Listeria monocytogenes (4b) strain 290, plc +, 24 h on Tryptic Soy Agar, 0.78 mM PC PLC Indicator, 3.2 g/l BSA, 0.05% Tween80, 5 mM MnCl2
[10] = Pseudomonas aeruginosa strain 168, plc +, 24 h on Tryptic Soy Agar, 0.78 mM PC PLC Indicator, 3.2 g/l BSA, 0.05% Tween80, 5 mM MnCl2
[11] = Pseudomonas aeruginosa strain 168, plc +, 24 h on Tryptic Soy Agar, 0.78 mM PC PLC Indicator, 3.2 g/l BSA, 0.05% Tween80, 5 mM MnCl2, natural color, same on agar without substrate
[12] = Pseudomonas aeruginosa strain 168, plc +, 24 h on Tryptic Soy Agar, 0.78 mM PC PLC Indicator, 3.2 g/l BSA, 0.05% Tween80, 5 mM MnCl2, natural fluorescence, same on agar without substrate
[13] = Escherichia coli strain 61, glucuronidase +, 24 h on Nutrient Agar, 0.45 mM beta-D-Glucuronidase Indicator
[14] = Escherichia coli strain 62, glucuronidase +, 24 h on Nutrient Agar, 0.45 mM beta-D-Glucuronidase Indicator
[15] = Escherichia coli strain 270, glucuronidase +, 24 h on Nutrient Agar, 0.45 mM beta-D-Glucuronidase Indicator
[16] = Klebsiella pneumoniae strain 164, glucuronidase −, 24 h on Nutrient Agar, 0.45 mM beta-D-Glucuronidase Indicator
[17] = Bacillus cereus strain 289, 24 h on Nutrient Agar, 0.52 mM C1-Esterase Indicator
[18] = Escherichia coli strain 270, 24 h on Nutrient Agar, 0.52 mM C1-Esterase Indicator
[19] = Klebsiella pneumoniae strain 164, 24 h on Nutrient Agar, 0.52 mM C1-Esterase Indicator
[20] = Enterobacter aerogenes strain 242, a-glucosidase −, 24 h on Nutrient Agar, 150 mg/l alpha-D-Glucosidase Indicator
[21] = Enterobacter cloacae strain 245, a-glucosidase −, 24 h on Nutrient Agar, 150 mg/l alpha-D-Glucosidase Indicator
[22] = Enterobacter sakazakii strain 141, a-glucosidase +, 24 h on Nutrient Agar, 150 mg/l alpha-D-Glucosidase Indicator
[23] = Enterobacter sakazakii strain 142, a-glucosidase +, 24 h on Nutrient Agar, 150 mg/l alpha-D-Glucosidase Indicator
[24] = Escherichia coli strain 270, a-glucosidase −, 24 h on Nutrient Agar, 150 mg/l alpha-D-Glucosidase Indicator
[25] = Shigella sonnei strain 133, a-glucosidase −, 24 h on Nutrient Agar, 150 mg/l alpha-D-Glucosidase Indicator

1-[2-(2,4-Dimethoxybenzoyl)phenyl]-1H-indol-3-yl choline phosphate [Indicator I25d]
y-g^1: C: Color of colonies [11]
+/−: C: Color of colonies [7] | F: Fluorescence of colonies [7] | C: Color of colonies [8] | F: Fluorescence of colonies [8]
+: C: Color of colonies [1] | G: Growth of colonies [1] | C: Color of colonies [2] | G: Growth of colonies [2] | G: Growth of colonies [3] | C: Color of colonies [4] | G: Growth of colonies [4] | C: Color of colonies [5] | G: Growth of colonies [5] | C: Color of colonies [6] | G: Growth of colonies [6] | G: Growth of colonies [7] | G: Growth of colonies [8] | G: Growth of colonies [9] | G: Growth of colonies [10]
y-g: F: Fluorescence of colonies (hue)
−: C: Color of colonies [9] | F: Fluorescence of colonies [9]
b^2: F: Fluorescence of colonies [12]
++: F: Fluorescence of colonies [1] | F: Fluorescence of colonies [2] | C: Color of colonies [3] | F: Fluorescence of colonies [3] | F: Fluorescence of colonies [4] | F: Fluorescence of colonies [5] | F: Fluorescence of colonies [6]

5-Bromo-4-chloro-1H-indol-3-yl choline phosphate [Indicator I4d, reference compound]
b^2: F: Fluorescence of colonies [12]
++: C: Color of colonies [3]
+: G: Growth of colonies [1] | G: Growth of colonies [2] | G: Growth of colonies [3] | G: Growth of colonies [4] | C: Color of colonies [5] | G: Growth of colonies [5] | G: Growth of colonies [6] | C: Color of colonies [7] | G: Growth of colonies [7] | G: Growth of colonies [8] | G: Growth of colonies [9] | G: Growth of colonies [10]
+/−: C: Color of colonies [1] | C: Color of colonies [2] | C: Color of colonies [6] | C: Color of colonies [8]
y-g^1: C: Color of colonies [11]
−: F: Fluorescence of colonies [1] | F: Fluorescence of colonies [2] | F: Fluorescence of colonies [3] | C: Color of colonies [4] | F: Fluorescence of colonies [4] | F: Fluorescence of colonies [5] | F: Fluorescence of colonies [6] | F: Fluorescence of colonies [7] | F: Fluorescence of colonies [8] | C: Color of colonies [9] | F: Fluorescence of colonies [9] | F: Fluorescence of colonies (hue)

O=C([O-])[C@H]1O[C@@H](Oc2c[nH]c3cc(Cl)ccc23)[C@H](O)[C@@H](O)[C@@H]1O.[Na+] [Indicator I3f, 6-Chloro-1H-indol-3-yl-beta-D-glucuronide sodium salt, reference compound]
−: F: Fluorescence of colonies [13] | F: Fluorescence of colonies [14] | F: Fluorescence of colonies [15] | C: Color of colonies [16] | F: Fluorescence of colonies [16]
+: C: Color of colonies [13] | G: Growth of colonies [13] | C: Color of colonies [14] | G: Growth of colonies [14] | C: Color of colonies [15] | G: Growth of colonies [15] | G: Growth of colonies [16]

CC(=O)Oc1c[nH]c2ccc(Br)c(Cl)c12 [Indicator I4c, 5-Bromo-4-chloro-1H-indol-3-yl acetate, reference compound]
+/−: G: Growth of colonies [18]
−: C: Color of colonies [17] | F: Fluorescence of colonies [17] | G: Growth of colonies [17] | C: Color of colonies [18] | F: Fluorescence of colonies [18] | F: Fluorescence of colonies [19] | F: Fluorescence of colonies (hue)
+: C: Color of colonies [19] | G: Growth of colonies [19]

CC(=O)Oc1cn(-c2ccccc2C(=O)c2ccccc2)c2ccccc12 [Indicator I19c, 1-(2-Benzoylphenyl)-1H-indol-3-yl acetate]
+/−: C: Color of colonies [18]
++: C: Color of colonies [17]
+: G: Growth of colonies [17] | G: Growth of colonies [18] | C: Color of colonies [19] | G: Growth of colonies [19]

O=C(c1ccccc1)c1ccccc1-n1cc(O[C@H]2O[C@H](CO)[C@@H](O)[C@H](O)[C@H]2O)c2ccc(Cl)cc21 [Indicator I21e, 1-(2-Benzoylphenyl)-6-chloro-1H-indol-3-yl-alpha-D-glucopyranoside]
y-g: F: Fluorescence of colonies (hue)
+/−: F: Fluorescence of colonies [22] | F: Fluorescence of colonies [23]
+: G: Growth of colonies [20] | G: Growth of colonies [21] | C: Color of colonies [22] | G: Growth of colonies [22] | C: Color of colonies [23] | G: Growth of colonies [23] | G: Growth of colonies [24] | G: Growth of colonies [25]
−: C: Color of colonies [20] | F: Fluorescence of colonies [20] | C: Color of colonies [21] | F: Fluorescence of colonies [21] | C: Color of colonies [24] | F: Fluorescence of colonies [24] | C: Color of colonies [25] | F: Fluorescence of colonies [25]

O=C(c1ccccc1)c1ccccc1-n1cc(O[C@@H]2O[C@H](C(=O)[O-])[C@@H](O)[C@H](O)[C@H]2O)c2ccc(Cl)cc21.[Na+] [Indicator I21f, 1-(2-Benzoylphenyl)-6-chloro-1H-indol-3-yl-beta-D-glucuronide sodium salt]
y-o: F: Fluorescence of colonies (hue)
+: C: Color of colonies [13] | G: Growth of colonies [13] | C: Color of colonies [14] | G: Growth of colonies [14] | C: Color of colonies [15] | G: Growth of colonies [15] | G: Growth of colonies [16]
−: C: Color of colonies [16] | F: Fluorescence of colonies [16]
+/−: F: Fluorescence of colonies [13] | F: Fluorescence of colonies [14] | F: Fluorescence of colonies [15]
